Reference: patent publication US20050129769A1, “Polymeric articles for carrying therapeutic agents” (priority 2002, published 2005)

Columns and labels:
[1] = tested on: CL66 murine mammary carcinoma cells
Procedure: The efficacy and toxicity of nano-article-conjugated doxorubicin (Dox-NP) was compared to doxorubicin (Dox) and a saline control. Dox-NP of composition 14/1/1 IMMA/CiBA/NaA, 5.6 w % Dox were made following procedures described in Example 16.
CL66 murine mammary carcinoma cells were grown to 80-90% confluence in supplemented media, trypsinized for 2 min at 37° C. with 1× trypsin, rinsed with Hank's Balanced Salt Solution (w/out calcium and magnesium) and resuspended at 1×10^6 cell/ml, with 0.1 ml injected into the mammary fat pad of female Balb/C mice.
Lyophilized Dox-NP was reconstituted in sterile PBS at the appropriate concentration and stored at 2-8° C. for at least 1 hour, or overnight. Excipient Dox was diluted in PBS at the appropriate concentrations. 200 μL was injected intravenously through the tail vein of the mice on days 13, 15, and 18 following tumor challenge. Dox was injected at 225 μg/animal, while Dox-NP was injected at a nano-article level sufficient to deliver Dox at 250, 420 and 560 μg/animal.
Tumor volumes were measured superficially in two dimensions. Weight loss (or gain) and survival were recorded.

[2] = tested on: C-32 cells (human melanoma); assay: In vitro cytotoxicity, MTT cell proliferation assay; type: cell-based; conditions: 48 hours, free drug
Procedure: The toxicity of Dox linked to the nanoarticles via the amide bond was tested in an in vitro toxicity assay against C-32 cells (human melanoma).
In a 96-well tissue culture microtiter plate, 10,000 cells of C-32 per well in culture medium were allowed to attach for 2 hours prior to incubation with varying concentrations of Dox-amide nanoarticle, and free Dox. Cells were incubated at 37° C., 5% CO2 in a humidified chamber for 48 hours. Cell proliferation was assayed using the calorimetric MTT kit (CT01, Chemicon, Int.).
The toxicity of Dox linked to the nanoarticles via the hydrazone bond was tested in an in vitro toxicity assay against C-32 cells (human melanoma).
In a 96-well tissue culture microtiter plate, 10,000 cells of C-32 per well in culture medium were allowed to attach for 2 hours prior to incubation with varying concentrations of Dox-hydrazone nanoarticle, and free Dox. Cells were incubated at 37° C., 5% CO2 in a humidified chamber for 48 hours. Cell proliferation was assayed using the calorimetric MTT kit (CT01, Chemicon, Int.).

[3] = tested on: chorioallantoic membranes (CAM) of 7-days old chicken embryos incubated with murine mammary carcinoma Cl-66 cells; conditions: 3-day incubation
Procedure: The chorioallantoic membranes (CAM) of 7-days old chicken embryos were incubated with each 10^5 cells of the murine mammary carcinoma Cl-66 24 hours prior to a 3-day incubation with disks containing either 5 μg of Doxorubicin, 5 μg of Dox equivalent in nanoparticles (14/1/1 IMMA/NOBA/NaA, PEG3400), 5 μg of Dox equivalent in nanoparticles functionalized with cyclic-RGD (14/1/1 IMMA/NOBA/NaA, PEG3400-cRGD), or PBS as a control. Linker attachment to nanoparticles was made as described in Example 31.
After 3 days, CAMs were excised and photographed for analysis.

## COc1cccc2c1C(=O)c1c(O)c3c(c(O)c1C2=O)C[C@@](O)(C(=O)CO)C[C@@H]3O[C@H]1C[C@H](N)[C@H](O)[C@H](C)O1 [Doxorubicin]
[1]; 225 μg/animal Dox compared with the higher doses of Dox-NP
  survival time: slightly longer survival time
[1]; 225 μg/animal i.v. on days 13, 15, 18
  toxicity: toxic
[2]
  50% growth inhibition: 0.8 µg/mL
[3]; disks with 5 μg Dox or Dox equivalent
  reduction of the number of blood vessels / blood vessel distribution around the disk: most effective in reducing the number of blood vessels
[3]; disks with 5 μg
  embryos died during treatment: 3 out of 10
